According to ChEMBL document CHEMBL1212738, “Phenotypic and genotypic characterization of Enterobacteriaceae with decreased susceptibility to carbapenems: results from large hospital-based surveillance studies in China” (2010):
Converted amounts (≈) assume the structure as drawn.

Tests used:
[1] = system: Klebsiella pneumoniae; test: Antimicrobial activity against carbapenem-resistant Klebsiella pneumoniae ZJ69 deficient in SHV-28, ompK35/36 by CLSI method; assay type: functional
[2] = system: Klebsiella pneumoniae; test: Antimicrobial activity against carbapenem-resistant Klebsiella pneumoniae CY1 deficient in SHV-11, DHA-1, ompK35/36 by CLSI method; assay type: functional
[3] = system: Escherichia coli; test: Antimicrobial activity against Escherichia coli PU60T expressing CMY-2 by CLSI method; assay type: functional
[4] = system: Escherichia coli; test: Antimicrobial activity against Escherichia coli C600 transconjugant WH77T expressing IMP-4, TEM-1, CTX-M-3, qnrS1 by CLSI method
[5] = system: Klebsiella pneumoniae; test: Antimicrobial activity against carbapenem-resistant Klebsiella pneumoniae GZ84 deficient in SHV-11, aac(6')-Ib-cr, ompK35 by CLSI method; assay type: functional
[6] = system: Klebsiella pneumoniae; test: Antimicrobial activity against Klebsiella pneumoniae WH76 expressing IMP-4, TEM-1, SHV-14, CTX-M-3, qnrS1 by CLSI method; assay type: functional
[7] = system: Enterobacter cloacae; test: Antimicrobial activity against carbapenem-resistant Enterobacter cloacae SZ92 deficient in IMP-4, TEM-1, CTX-M-14, DHA-1, qnrB10/B4-like, aac(6')-Ib, ompC by CLSI method; assay type: functional
[8] = system: Klebsiella pneumoniae; test: Antimicrobial activity against carbapenem-resistant Klebsiella pneumoniae PU8 deficient in SHV-11, DHA-1, aac(6')-Ib-cr, ompK35/36 by CLSI method; assay type: functional
[9] = system: Escherichia coli; test: Antimicrobial activity against Escherichia coli HX74T expressing CTX-M-3 by CLSI method; assay type: functional
[10] = system: Citrobacter freundii; test: Antimicrobial activity against Citrobacter freundii SZ63T expressing IMP-4, qnrS1by CLSI method; assay type: functional
[11] = system: Klebsiella pneumoniae; test: Antimicrobial activity against Klebsiella pneumoniae WH77 expressing IMP-4, TEM-1, SHV-14, CTX-M-3, qnrS1 by CLSI method; assay type: functional
[12] = system: Escherichia coli; test: Antimicrobial activity against Escherichia coli C600 transconjugant WH76T expressing IMP-4, TEM-1, CTX-M-3, qnrS1 by CLSI method
[13] = system: Klebsiella pneumoniae; test: Antimicrobial activity against carbapenem-resistant Klebsiella pneumoniae PU105 deficient TEM-1, SHV-12, CTX-M-14, DHA-1, qnrB10/B4-like, aac(6')-Ib-cr, ompK35/36 by CLSI method; assay type: functional
[14] = system: Klebsiella pneumoniae; test: Antimicrobial activity against carbapenem-resistant Klebsiella pneumoniae ZJ71 deficient in KPC-2, TEM-1, SHV-11, CTX-M-14, ompK35 by CLSI method; assay type: functional
[15] = system: Escherichia coli; test: Antimicrobial activity against carbapenem-resistant Escherichia coli PU101 deficient in TEM-1, CTX-M-14, CMY-2, ompC by CLSI method; assay type: functional
[16] = system: Klebsiella pneumoniae; test: Antimicrobial activity against carbapenem-resistant Klebsiella pneumoniae XJ81 deficient in TEM-1, SHV-12, DHA-1, aac(6')-Ib, ompK35/36 by CLSI method; assay type: functional
[17] = system: Klebsiella pneumoniae; test: Antimicrobial activity against Klebsiella pneumoniae CY1T expressing SHV-11, DHA-1 by CLSI method; assay type: functional
[18] = system: Escherichia coli; test: Antimicrobial activity against Escherichia coli C600 by CLSI method; assay type: functional
[19] = system: Klebsiella pneumoniae; test: Antimicrobial activity against Klebsiella pneumoniae ZJ71T expressing KPC-2 by CLSI method; assay type: functional
[20] = system: Escherichia coli; test: Antimicrobial activity against Escherichia coli PU101T expressing CMY-2 by CLSI method; assay type: functional
[21] = system: Klebsiella pneumoniae; test: Antimicrobial activity against carbapenem-resistant Klebsiella pneumoniae GZ83 deficient in SHV-11, CTX-M-14, ompK35/36 by CLSI method; assay type: functional
[22] = system: Klebsiella pneumoniae; test: Antimicrobial activity against carbapenem-resistant Klebsiella pneumoniae PU5 deficient in SHV-12, DHA-1, aac(6')-Ib-cr, ompK35/36 by CLSI method; assay type: functional
[23] = system: Klebsiella pneumoniae; test: Antimicrobial activity against carbapenem-resistant Klebsiella pneumoniae ZJ68 deficient in CTX-M-15, ompK35/36 by CLSI method
[24] = system: Klebsiella pneumoniae; test: Antimicrobial activity against carbapenem-resistant Klebsiella pneumoniae FZ47 deficient in IMP-8, TEM-1, SHV-11, CTX-M-14, qnrB2, aac(6')-Ib, ompK35/36 by CLSI method; assay type: functional
[25] = system: Klebsiella pneumoniae; test: Antimicrobial activity against Klebsiella pneumoniae ZJ99 expressing KPC-2, CTX-M-3, qnrS1, ompK35 DE by CLSI method; assay type: functional
[26] = system: Klebsiella pneumoniae; test: Antimicrobial activity against carbapenem-resistant Klebsiella pneumoniae ZJ70 deficient in KPC-2, SHV-11, CTX-M-14, ompK35/36 by CLSI method; assay type: functional
[27] = system: Citrobacter freundii; test: Antimicrobial activity against Citrobacter freundii SZ62 expressing IMP-4, TEM-1, CMY-2, qnrS1, aac(6')-Ib-cr by CLSI method; assay type: functional
[28] = system: Klebsiella pneumoniae; test: Antimicrobial activity against carbapenem-resistant Klebsiella pneumoniae GZ66 deficient in SHV-11, DHA-1, ompK35/36 by CLSI method; assay type: functional
[29] = system: Escherichia coli; test: Antimicrobial activity against carbapenem-resistant Escherichia coli ZJ86 expressing KPC-2, TEM-1 with ompC loss by CLSI method
[30] = system: Citrobacter freundii; test: Antimicrobial activity against Citrobacter freundii SZ63 expressing IMP-4, qnrS1by CLSI method; assay type: functional
[31] = system: Klebsiella pneumoniae; test: Antimicrobial activity against carbapenem-resistant Klebsiella pneumoniae PU4 deficient in SHV-1, DHA-1, ompK35/36 by CLSI method; assay type: functional
[32] = system: Klebsiella aerogenes; test: Antimicrobial activity against carbapenem-resistant Enterobacter aerogenes WH85 deficient in TEM-1, CTX-M-3, ompC/F by CLSI method; assay type: functional
[33] = system: Klebsiella pneumoniae; test: Antimicrobial activity against carbapenem-resistant Klebsiella pneumoniae FZ49 deficient in IMP-8, TEM-1, SHV-11, CTX-M-14, qnrB2, aac(6')-Ib, ompK35/36 by CLSI method; assay type: functional
[34] = system: Klebsiella pneumoniae; test: Antimicrobial activity against carbapenem-resistant Klebsiella pneumoniae CY75 deficient in SHV-11, DHA-1, ompK35/36 by CLSI method; assay type: functional
[35] = system: Escherichia coli; test: Antimicrobial activity against Escherichia coli C600 transconjugant SZ62T expressing IMP-4, qnrS1by CLSI method
[36] = system: Enterobacter cloacae; test: Antimicrobial activity against carbapenem-resistant Enterobacter cloacae GX24 deficient in TEM-1, DHA-1, aac(6')-Ib, ompC by CLSI method; assay type: functional
[37] = system: Escherichia coli; test: Antimicrobial activity against Escherichia coli ZJ87T expressing KPC-2 by CLSI method; assay type: functional
[38] = system: Enterobacter cloacae; test: Antimicrobial activity against carbapenem-resistant Enterobacter cloacae GX56 deficient in ompC and expressing low levels of ompF DE by CLSI method; assay type: functional
[39] = system: Klebsiella pneumoniae; test: Antimicrobial activity against carbapenem-resistant Klebsiella pneumoniae SZ61 deficient in TEM-1, SHV-1a, CMY-2, ompK35/36 by CLSI method; assay type: functional
[40] = system: Klebsiella pneumoniae; test: Antimicrobial activity against Klebsiella pneumoniae ZJ99T expressing KPC-2, CTX-M-3, qnrS1 by CLSI method; assay type: functional

Row | Compound | MIC [1] [µg/mL] | MIC [2] [µg/mL] | MIC [3] [µg/mL] | MIC [4] [µg/mL] | MIC [5] [µg/mL] | MIC [6] [µg/mL] | MIC [7] [µg/mL] | MIC [8] [µg/mL] | MIC [9] [µg/mL] | MIC [10] [µg/mL] | MIC [11] [µg/mL] | MIC [12] [µg/mL] | MIC [13] [µg/mL] | MIC [14] [µg/mL] | MIC [15] [µg/mL] | MIC [16] [µg/mL] | MIC [17] [µg/mL] | MIC [18] [µg/mL] | MIC [19] [µg/mL] | MIC [20] [µg/mL] | also measured
1 | C[C@@H](O)[C@H]1C(=O)N2C(C(=O)O)=C(S[C@@H]3CN[C@H](C(=O)Nc4cccc(C(=O)O)c4)C3)[C@H](C)[C@H]12 | 32 (≈ 67.3 µM) | 32 (≈ 67.3 µM) | 0.064 (≈ 0.135 µM) | 4 (≈ 8.41 µM) | 8 (≈ 16.8 µM) | 2 (≈ 4.21 µM) | 32 (≈ 67.3 µM) | 32 (≈ 67.3 µM) | 0.064 (≈ 0.135 µM) | 4 (≈ 8.41 µM) | 4 (≈ 8.41 µM) | 2 (≈ 4.21 µM) | 128 (≈ 269 µM) | 16 (≈ 33.6 µM) | 128 (≈ 269 µM) | 64 (≈ 135 µM) | 0.008 (≈ 0.0168 µM) | 0.008 (≈ 0.0168 µM) | 4 (≈ 8.41 µM) | 0.25 (≈ 0.526 µM) | MIC [21]: 128 µg/mL (≈ 269 µM); MIC [22]: 64 µg/mL (≈ 135 µM); MIC [23]: 64 µg/mL (≈ 135 µM); MIC [24]: 8 µg/mL (≈ 16.8 µM); MIC [25]: 8 µg/mL (≈ 16.8 µM); MIC [26]: > 256 µg/mL; MIC [27]: 4 µg/mL (≈ 8.41 µM); MIC [28]: 64 µg/mL (≈ 135 µM); MIC [29]: 32 µg/mL (≈ 67.3 µM); MIC [30]: 4 µg/mL (≈ 8.41 µM); MIC [31]: 32 µg/mL (≈ 67.3 µM); MIC [32]: 16 µg/mL (≈ 33.6 µM); MIC [33]: 4 µg/mL (≈ 8.41 µM); MIC [34]: 64 µg/mL (≈ 135 µM); MIC [35]: 4 µg/mL (≈ 8.41 µM); MIC [36]: 16 µg/mL (≈ 33.6 µM); MIC [37]: 16 µg/mL (≈ 33.6 µM); MIC [38]: 32 µg/mL (≈ 67.3 µM); MIC [39]: 64 µg/mL (≈ 135 µM); MIC [40]: 8 µg/mL (≈ 16.8 µM)
2 | NCC[C@H](O)C(=O)N[C@@H]1C[C@H](N)[C@@H](O[C@H]2O[C@H](CN)[C@@H](O)[C@H](O)[C@H]2O)[C@H](O)[C@H]1O[C@H]1O[C@H](CO)[C@@H](O)[C@H](N)[C@H]1O [AMIKACIN] | > 256 | > 256 | 1 (≈ 1.71 µM) | 1 (≈ 1.71 µM) | 16 (≈ 27.3 µM) | 1 (≈ 1.71 µM) | 1 (≈ 1.71 µM) | 8 (≈ 13.7 µM) | 2 (≈ 3.42 µM) | > 256 | 1 (≈ 1.71 µM) | 1 (≈ 1.71 µM) | > 256 | > 256 | 4 (≈ 6.83 µM) | 16 (≈ 27.3 µM) | > 256 | 1 (≈ 1.71 µM) | 1 (≈ 1.71 µM) | 1 (≈ 1.71 µM) | MIC [21]: > 256 µg/mL; MIC [22]: > 256 µg/mL; MIC [23]: > 256 µg/mL; MIC [24]: > 256 µg/mL; MIC [25]: 0.5 µg/mL (≈ 0.854 µM); MIC [26]: > 256 µg/mL; MIC [27]: > 256 µg/mL; MIC [28]: > 256 µg/mL; MIC [29]: 1 µg/mL (≈ 1.71 µM); MIC [30]: > 256 µg/mL; MIC [31]: > 256 µg/mL; MIC [32]: 1 µg/mL (≈ 1.71 µM); MIC [33]: > 256 µg/mL; MIC [34]: 2 µg/mL (≈ 3.42 µM); MIC [35]: 1 µg/mL (≈ 1.71 µM); MIC [36]: > 256 µg/mL; MIC [37]: 1 µg/mL (≈ 1.71 µM); MIC [38]: > 256 µg/mL; MIC [39]: > 256 µg/mL; MIC [40]: 2 µg/mL (≈ 3.42 µM)
3 | CO[C@@]1(NC(=O)Cc2cccs2)C(=O)N2C(C(=O)O)=C(COC(N)=O)CS[C@@H]21 [CEFOXITIN] | > 256 | > 256 | 128 (≈ 299 µM) | > 256 | > 256 | > 256 | > 256 | > 256 | 16 (≈ 37.4 µM) | > 256 | > 256 | > 256 | > 256 | 16 (≈ 37.4 µM) | > 256 | > 256 | 64 (≈ 150 µM) | 16 (≈ 37.4 µM) | 32 (≈ 74.9 µM) | > 256 | MIC [21]: > 256 µg/mL; MIC [22]: > 256 µg/mL; MIC [23]: 32 µg/mL (≈ 74.9 µM); MIC [24]: > 256 µg/mL; MIC [25]: 32 µg/mL (≈ 74.9 µM); MIC [26]: 128 µg/mL (≈ 299 µM); MIC [27]: > 256 µg/mL; MIC [28]: > 256 µg/mL; MIC [29]: 64 µg/mL (≈ 150 µM); MIC [30]: > 256 µg/mL; MIC [31]: > 256 µg/mL; MIC [32]: 256 µg/mL (≈ 599 µM); MIC [33]: > 256 µg/mL; MIC [34]: > 256 µg/mL; MIC [35]: > 256 µg/mL; MIC [36]: > 256 µg/mL; MIC [37]: 64 µg/mL (≈ 150 µM); MIC [38]: > 256 µg/mL; MIC [39]: > 256 µg/mL; MIC [40]: 32 µg/mL (≈ 74.9 µM)
